This is an account of results in patent publication US4351948A, “Imidazole hydrazone derivatives” (priority 1980, dated 1982).

Assay in all cases: Antianaerobic activity, MIC by standard broth dilution method (Table II)
What all share (type): cell-based
On the technique in general: Dilution methods test growth across graded concentrations, often in twofold steps.

One experiment has as its system T. vaginalis ATCC 30001. To be noted: Trichomonas vaginalis, ATCC30001, 24 h, read-out: Minimal Inhibitory Concentration (MIC). How it is done:
(§1) The activity of the compounds identified in the Table II below was tested for antianaerobic activity against one strain of Bacteroides fragilis, one strain of Bacteroides uniformis, one strain of Clostridium sporogenes and one strain of Trichomonas vaginalis as the test organism. The methods used involved determining the minimum inhibitory concentration by the standard broth dilution method. […] For convenience the compounds are referred to by an internal reference number (an HC number) and this is correlated with the number of the Example wherein its production is described.

For the next experiment, the system named is B. uniformis ATCC 8492. Conditions: Bacteroides uniformis, ATCC8492, 24 h, read-out: Minimal Inhibitory Concentration (MIC). How it is done: as §1
The subject of the next experiment is B. fragilis ATCC 23745. To be noted: Bacteroides fragilis, ATCC23745, 24 h, read-out: Minimal Inhibitory Concentration (MIC). How it is done: as §1
The next experiment concerns C. sporogenes ATCC 19404. Conditions: Clostridium sporogenes, ATCC19404, 24 h. How it is done: The activity of the compounds identified in the Table II below was tested for antianaerobic activity against one strain of Bacteroides fragilis, one strain of Bacteroides uniformis, one strain of Clostridium sporogenes and one strain of Trichomonas vaginalis as the test organism. The methods used involved determining the minimum inhibitory concentration by the standard broth dilution method. The values for metronidazole (2-methyl-5-nitro-1H-imidazole-1-ethanol) are given above for reference purposes. For convenience the compounds are referred to by an internal reference number (an HC number) and this is correlated with the number of the Example wherein its production is described.

[1] abbreviates: Test 1, read-out: Minimal Inhibitory Concentration (MIC).
Setting [2] is: Test 2, read-out: Minimal Inhibitory Concentration (MIC).
Where [3] appears, read: Test 3, read-out: Minimal Inhibitory Concentration (MIC).

Counter-ions that a name gives are not always drawn. Like-named read-outs stand apart in the source and are kept apart here. Some results are limits rather than exact numbers.

Consider `CC(C(=NNc1ccc(Cl)cc1Cl)c1ccc(Cl)cc1)n1ccnc1` (stereo not drawn) [HC-433, 1(4-chlorophenyl)-2-(1H-imidazol-1-yl) propanone, 2,4-dichlorophenylhydrazone, hydrochloride], for which the MIC in the experiment on T. vaginalis ATCC 30001 (Test 1) stood at 75 µg/mL; in the experiment on T. vaginalis ATCC 30001 (Test 2) it was 50 µg/mL; in the experiment with T. vaginalis ATCC 30001 (Test 3), 50 µg/mL; with B. uniformis ATCC 8492 (Test 1) it was 0.5 µg/mL; in the experiment with B. uniformis ATCC 8492 (Test 2), 5 µg/mL; in the experiment on B. uniformis ATCC 8492 (Test 3) it was 2.5 µg/mL. The MIC in the experiment on B. fragilis ATCC 23745 (Test 1) stood at 1 µg/mL; in the experiment with B. fragilis ATCC 23745 (Test 2), 2.5 µg/mL; with B. fragilis ATCC 23745 (Test 3), 2.5 µg/mL; in the experiment with C. sporogenes ATCC 19404 (setting [1]), 1 µg/mL; in the experiment with C. sporogenes ATCC 19404 (setting [2]) it was 2.5 µg/mL; in the experiment with C. sporogenes ATCC 19404 (setting [3]) it was 2.5 µg/mL.
In the case of `CC(C(=NNc1c(Cl)cc(Cl)cc1Cl)c1ccc(Cl)cc1)n1ccnc1` (stereo not drawn) [HC-561, 1-(4-chlorophenyl)-2-(1H-imidazol-1-yl)propanone, 2,4,6-trichlorophenylhydrazone, hydrochloride], the MIC in the experiment on T. vaginalis ATCC 30001 (Test 1) is over 100 µg/mL; in the experiment with T. vaginalis ATCC 30001 (Test 2) it was over 100 µg/mL; in the experiment with T. vaginalis ATCC 30001 (Test 3), over 100 µg/mL; with B. uniformis ATCC 8492 (Test 1), 5 µg/mL; in the experiment on B. uniformis ATCC 8492 (Test 2), 7.5 µg/mL; in the experiment with B. uniformis ATCC 8492 (Test 3), 7.5 µg/mL. The MIC worked out at 1 µg/mL with B. fragilis ATCC 23745 (Test 1); 2.5 µg/mL in the experiment on B. fragilis ATCC 23745 (Test 2); 5 µg/mL with B. fragilis ATCC 23745 (Test 3); 1 µg/mL in the experiment on C. sporogenes ATCC 19404 (setting [1]); 1 µg/mL with C. sporogenes ATCC 19404 (setting [2]); 1 µg/mL in the experiment with C. sporogenes ATCC 19404 (setting [3]).
Take `Cl.Clc1ccc(C(Cn2ccnc2)=NNc2c(Cl)cc(Cl)cc2Cl)c(Cl)c1` [HC-420, 1-(2,4-dichlorophenyl)-2-(1H-imidazol-1-yl)ethanone, 2,4,6-trichlorophenylhydrazone, hydrochloride]: the MIC with T. vaginalis ATCC 30001 (Test 1) was found to be 50 µg/mL; in the experiment with T. vaginalis ATCC 30001 (Test 2), 50 µg/mL; with T. vaginalis ATCC 30001 (Test 3), 50 µg/mL; in the experiment on B. uniformis ATCC 8492 (Test 1) it was 10 µg/mL; in the experiment on B. uniformis ATCC 8492 (Test 2), 1 µg/mL; in the experiment with B. uniformis ATCC 8492 (Test 3), 2.5 µg/mL. Further, the MIC in the experiment on B. fragilis ATCC 23745 (Test 1) stood at 10 µg/mL; in the experiment on B. fragilis ATCC 23745 (Test 2), 2.5 µg/mL; in the experiment with B. fragilis ATCC 23745 (Test 3), 2.5 µg/mL; in the experiment with C. sporogenes ATCC 19404 (setting [1]), 10 µg/mL; in the experiment with C. sporogenes ATCC 19404 (setting [2]) it was 2.5 µg/mL; with C. sporogenes ATCC 19404 (setting [3]) it was 2.5 µg/mL.
`Cl.Clc1ccc(Cl)c(NN=C(Cn2ccnc2)c2ccccc2Cl)c1` [HC-469, 1-(2-chlorophenyl)-2-(1H-imidazol-1-yl)ethanone, 2,5-dichlorophenylhydrazone, hydrochloride]: the MIC was determined as 50 µg/mL with T. vaginalis ATCC 30001 (Test 1); 75 µg/mL in the experiment on T. vaginalis ATCC 30001 (Test 2); 100 µg/mL in the experiment on T. vaginalis ATCC 30001 (Test 3); 5 µg/mL in the experiment on B. uniformis ATCC 8492 (Test 1); 1 µg/mL in the experiment on B. uniformis ATCC 8492 (Test 2); 2.5 µg/mL in the experiment with B. uniformis ATCC 8492 (Test 3). Also, the MIC with B. fragilis ATCC 23745 (Test 1) came to 5 µg/mL; with B. fragilis ATCC 23745 (Test 2), 5 µg/mL; in the experiment with B. fragilis ATCC 23745 (Test 3) it was 10 µg/mL; in the experiment on C. sporogenes ATCC 19404 (setting [1]), 2.5 µg/mL; with C. sporogenes ATCC 19404 (setting [2]), 7.5 µg/mL; with C. sporogenes ATCC 19404 (setting [3]) it was 1 µg/mL.
For the molecule `Cl.Clc1cccc(Cl)c1NN=C(Cn1ccnc1)c1ccc(Br)cc1` [HC-364, 1-(4-bromophenyl)-2-(1H-imidazol-1-yl)ethanone, 2,6-dichlorophenylhydrazone, hydrochloride], the MIC in the experiment with T. vaginalis ATCC 30001 (Test 1) turned out to be 50 µg/mL; in the experiment with T. vaginalis ATCC 30001 (Test 2) it was 50 µg/mL; with T. vaginalis ATCC 30001 (Test 3) it was 50 µg/mL; with B. uniformis ATCC 8492 (Test 1), 10 µg/mL; in the experiment with B. uniformis ATCC 8492 (Test 2), 2.5 µg/mL; in the experiment with B. uniformis ATCC 8492 (Test 3), 2.5 µg/mL. In addition, the MIC in the experiment on B. fragilis ATCC 23745 (Test 1) worked out at 10 µg/mL; in the experiment with B. fragilis ATCC 23745 (Test 2), 2.5 µg/mL; with B. fragilis ATCC 23745 (Test 3) it was 5 µg/mL; in the experiment with C. sporogenes ATCC 19404 (setting [1]) it was 10 µg/mL; in the experiment with C. sporogenes ATCC 19404 (setting [2]) it was 5 µg/mL; in the experiment on C. sporogenes ATCC 19404 (setting [3]) it was 25 µg/mL.
With `CC(C(=NNc1c(Cl)cccc1Cl)c1ccc(Cl)cc1)n1ccnc1` (stereo not drawn) [HC-403, 1-(4-chlorophenyl)-2-(1H-imidazol-1-yl)propanone, 2,6-dichlorophenylhydrazone, hydrochloride], the MIC in the experiment on T. vaginalis ATCC 30001 (Test 1) was under 50 µg/mL; with T. vaginalis ATCC 30001 (Test 2) it was 7.5 µg/mL; in the experiment on T. vaginalis ATCC 30001 (Test 3), under 50 µg/mL; with B. uniformis ATCC 8492 (Test 1), 2.5 µg/mL; in the experiment with B. uniformis ATCC 8492 (Test 2), 2.5 µg/mL; with B. uniformis ATCC 8492 (Test 3), 2.5 µg/mL. For the same molecule, the MIC worked out at 5 µg/mL in the experiment with B. fragilis ATCC 23745 (Test 1); 2.5 µg/mL with B. fragilis ATCC 23745 (Test 2); 5 µg/mL in the experiment with B. fragilis ATCC 23745 (Test 3); 7.5 µg/mL in the experiment with C. sporogenes ATCC 19404 (setting [2]); 1 µg/mL in the experiment on C. sporogenes ATCC 19404 (read-out: Minimal Inhibitory Concentration (MIC), Test 1); 50 µg/mL in the experiment on C. sporogenes ATCC 19404 (read-out: Minimal Inhibitory Concentration (MIC), Test 3).
